The numbers were not newly measured in PMC8198792, “Prediction of Anticancer Peptides with High Efficacy and Low Toxicity by Hybrid Model Based on 3D Structure of Peptides” (International Journal of Molecular Sciences, 2021), which cites them from elsewhere.

The data set relates to cancer cell lines. On the set-up: method as in 6 sources, ref CancerPPD [45] and SATPdb ||| ref CancerPPD/SATPdb ||| ref CancerPPD, SATPdb, Swissprot (PDB) ||| ref CancerPPD/SATPdb/Swissprot(PDB) ||| ref CancerPPD / SATPdb ||| ... Particulars: cited from earlier work. From the text:
Supplement ijms-22-05630-s001.zip/ACPs(seguence).xlsx, sheet "D1" | column: Activity || Supplement ijms-22-05630-s001.zip/ACPs(seguence).xlsx, sheet "D2" | column: Activity || Supplement ijms-22-05630-s001.zip/ACPs(seguence).xlsx, sheet "D3" | column: Activity || (+ 2 further places)

The mark [1] stands for this setting: ACPs dataset D3 (sheet "D3"), label 1 = ACP, 0 = non-ACP, ref CancerPPD/SATPdb.
Setting [2] is: ACPs dataset D4 (sheet "D4"), label 1 = ACP, 0 = non-ACP, ref CancerPPD / SATPdb.
Setting [3] is: ACPs dataset D5, sheet "D5", label 1 = ACP, 0 = non-ACP, ref CancerPPD [45] and SATPdb.
Setting [4] is: ACPs dataset D2 (supplement ACPs(seguence).xlsx, sheet D2), dataset label 1/0 (ACP / non-ACP), entries identified by Swissprot(PDB ID), ref CancerPPD/SATPdb/Swissprot(PDB).
Setting [5] is: ACPs dataset D1, 1 = ACP (positive), 0 = non-ACP (negative), label taken from databases, ref CancerPPD [45] and SATPdb.
Where [6] appears, read: ACPs dataset D4 (sheet "D4"), label 1 = ACP, experimentally validated ACPs, ref CancerPPD [45] and SATPdb.
[7] abbreviates: ACPs dataset D5 (sheet "D5"), label 1 = ACP (positive set), sequences with CancerPPD/SATPdb ID, ref CancerPPD, SATPdb.
Where [8] appears, read: ACPs dataset sheet D2, 1 = ACP (CancerPPD/SATPdb ID), 0 = non-ACP (Swissprot/PDB ID), ref CancerPPD, SATPdb, Swissprot (PDB).
Setting [9] is: ACPs dataset D5 (sheet "D5"), label 1 = ACP (positive set), 0 = non-ACP (negative set), ref CancerPPD [45] and SATPdb.
The mark [10] stands for this setting: ACPs dataset D1, label 1 = ACP, 0 = non-ACP (non-anticancer AMPs from SATPdb), ref CancerPPD/SATPdb.
Where [11] appears, read: ACPs dataset D4 (sheet "D4"), label 1 = ACP (CancerPPD ID), 0 = non-ACP (non-anticancer AMP, SATPdb ID), ref CancerPPD [45] and SATPdb.
Setting [12] is: ACPs dataset D3 (supplement sheet "D3"), 1 = ACP, 0 = non-ACP, ref CancerPPD [45] and SATPdb.

Read-outs that look alike come from different tables or passages of the source.

Take “RLYRRLYRRLYRRLYRRLYRRLYRRLYRRLYRKKKKKKK [satpdb14208]”: the Activity was 0 under setting [1], 0 under setting [2] and 0 under setting [3].
“MKVRVDADACIGCGVCENLCPDVFQLGDDGKAKVLQPETDLPCAKDAADSCPTGAISVEE [1VJW X-ray 1.75 A 1-60]”: the Activity under setting [4] is given as 0 and the Activity under setting [3] is 0.
In the case of IDWKKLLDAAKQIL [compound 4438], the Activity reads like this: under setting [5], 1; under setting [6], 1; under setting [7], 1; under setting [8], 1.
For KIKSCYYLPCFVTS [satpdb14785], the Activity was 1 under setting [5], 1 under setting [6], 1 under setting [7] and 1 under setting [8].
On to “IPCGESCVWIPCISGMFGCSCKDKVCYS [compound 4368]”, for which the Activity is on record as 1 under setting [5], 1 under setting [6], 1 under setting [7] and 1 under setting [8].
For the substance “IWLTALKFLG KNLGKHLAKQ QLAKL [6CL3 NMR - A 1-25]”, the Activity reads like this: under setting [9], 0; under setting [8], 0.
Turning to “KVNANAIKKGGKAIGKGFKVISAASTAHDVYEHIKNRRH [satpdb12894]”, the Activity is on record as 0 under setting [10] and 0 under setting [2].
With “MKNAKQEHFELDQEWVELMVEAKEANISPEEIRKYLLLNKKSAHPGPAARSHTVNPF [1B0N X-ray 1.90,B,1-57]”, the Activity reads like this: under setting [4], 0; under setting [3], 0.
For the substance “RTCESPSNKFQGVCLNSQSCAKACPSEGFSGGRCSSLRCYCSKAC [satpdb13976]”, the Activity by setting is: under setting [10], 0; under setting [11], 0.
Regarding GLFDIVKKVVGTLAGL [compound 4409], the Activity by setting is: under setting [5], 1; under setting [6], 1; under setting [7], 1; under setting [8], 1.
Consider GIIKKIIIKKIIIKKIIIKKI [compound 1434], for which the Activity reads like this: under setting [5], 1; under setting [6], 1; under setting [7], 1; under setting [8], 1.
Regarding “GFGCPGNQLKCNNHCKSISCRAGYCDAATLWLRCTCTDCNGKK [satpdb11046]”, the Activity is listed as 0 under setting [5] and 0 under setting [11].
“LRVRLASHLRKLRKRLLRDADDLQKRLAVY [compound 1665]”: the Activity is reported as 1 under setting [5], 1 under setting [6], 1 under setting [7] and 1 under setting [8].
Regarding KGRGKRRRCKQRPSDCPRR [satpdb22253], the Activity by setting is: under setting [5], 1; under setting [6], 1; under setting [7], 1; under setting [8], 1.
For the substance “GTLPCGESCVWIPCISAVVGCSCKSKVCYKN [satpdb10694]”, the Activity by setting is: under setting [5], 0; under setting [11], 0.
Turning to GLFDIVKKVVGAIGSL [compound 4407], the Activity by setting is: under setting [5], 1; under setting [6], 1; under setting [7], 1; under setting [8], 1.
Turning to FLSLIPSLVGGSISAFK [compound 3123], the Activity is listed as 1 under setting [12], 1 under setting [6] and 1 under setting [7].
Consider “MKVRSSVKKMCDNCKVVRRHGRVLVICSNVKHKQRQG [2ZJR X-ray 2.91,4,1-37]”, for which the Activity is recorded as 0 under setting [4] and 0 under setting [9].
For GLFDIAKKVIGVIGSL [compound 1270], the Activity by setting is: under setting [12], 1; under setting [11], 1; under setting [9], 1.
Consider PPPEE [compound 1426], for which the Activity is, setting by setting: under setting [12], 1; under setting [11], 1; under setting [9], 1.
As to GVLSNVIGYLKKLGTGALNAVLKQ [satpdb12685], the Activity reads like this: under setting [10], 0; under setting [11], 0.
Regarding “GTWDDIGQGIGRVAYWVGKAMGNMSDVNQASRINRKKKH [2JPJ NMR - A 1-39]”, the Activity under setting [4] is given as 0 and the Activity under setting [9] is recorded as 0.
With LCYARRRFAVCV [satpdb13142], the Activity was 0 under setting [10] and 0 under setting [2].
For the substance MPTWAWWLFLVLLLALWAPARG [satpdb27488], the Activity by setting is: under setting [5], 1; under setting [6], 1; under setting [7], 1; under setting [8], 1.
For the substance LVRGCWTKSYPPKPCFVR [satpdb11395], the Activity is, setting by setting: under setting [10], 0; under setting [11], 0.
On to “rrrrrrrrGEDIIRNIARHLAQVGDSMDR [compound 4227]”, for which the Activity reads like this: under setting [12], 1; under setting [11], 1; under setting [9], 1.
In the case of RPFVEMYSEIPE [satpdb28120], the Activity is, setting by setting: under setting [5], 1; under setting [6], 1; under setting [7], 1; under setting [8], 1.
For KCGHKHQCAVHN [satpdb17767], the Activity was 1 under setting [5], 1 under setting [6], 1 under setting [7] and 1 under setting [8].
Turning to “QRACPRILKK CRRDSDCPGE CICKENGYCG [2LJS NMR - A 1-30]”, the Activity runs as follows: under setting [9], 0; under setting [8], 0.
As to GMWSKILGHLIK [compound 3636], the Activity runs as follows: under setting [12], 1; under setting [11], 1; under setting [9], 1.
For “QCESGPCCRNCKFLKEGTICKRARGDDMDDYCNGKTCDCPRNPHKGPAT [1RO3 NMR - A 1-49]”, the Activity is on record as 0 under setting [4] and 0 under setting [9].
Consider TEENRELVSELKRP [satpdb12614], for which the Activity is, setting by setting: under setting [5], 1; under setting [6], 1; under setting [7], 1; under setting [8], 1.
Turning to ILPFKFPFFPFRR [satpdb11203], the Activity reads like this: under setting [5], 0; under setting [11], 0.
As to GKWMKLLKHILK [compound 3652], the Activity is reported as 1 under setting [12], 1 under setting [11] and 1 under setting [9].
For the substance “GVFTLIKGATQLIGKTLGKELGKTGLEIMACKITKQC [satpdb12576]”, the Activity was 0 under setting [10] and 0 under setting [11].
Take “MATAVYRCAKCGKEVELDLATAREVRCPYCGSKILYKPRPRVARRVKAI [4QIW X-ray 3.50 P/W 1-49]”: the Activity is, setting by setting: under setting [4], 0; under setting [9], 0.
With “GLFTLIKGAAKLIGKTVPKKQARLGMNLWLVKLPTNVKT [satpdb12795]”, the Activity was 0 under setting [10] and 0 under setting [2].
Regarding “GGLRSLGRKILRAWKKYGPIIVPIIRIG [compound 4394]”, the Activity is listed as 1 under setting [5], 1 under setting [6], 1 under setting [7] and 1 under setting [8].
Consider KKLLKWLKKLL [satpdb14598], for which the Activity runs as follows: under setting [1], 0; under setting [2], 0; under setting [3], 0.
With LLGMIPLAISAISALSKL [compound 4453], the Activity runs as follows: under setting [5], 1; under setting [6], 1; under setting [7], 1; under setting [8], 1.
On to ILPLKLPLLPLRR [satpdb14372], for which the Activity is 0 under setting [1], 0 under setting [2] and 0 under setting [3].
For the substance PEWFKCRRWQWRMKKLGA [compound 1604], the Activity was 1 under setting [5], 1 under setting [6], 1 under setting [7] and 1 under setting [8].
Consider KWKLFKKIPKFLHLAKK [compound 1119], for which the Activity runs as follows: under setting [12], 1; under setting [11], 1; under setting [9], 1.
As for “GLPVCGETCFGGTCNTPGCTCDPWPVCTRN [compound 4427]”, the Activity under setting [5] is reported as 1, the Activity under setting [6] is listed as 1, the Activity under setting [7] was 1 and the Activity under setting [8] is listed as 1.
For “DKLIGSCVWGAVNYTSDCNGECKRRGYKGGHCGSFANVNCWCET [1I2U NMR - A 1-44]”, the Activity is listed as 0 under setting [4] and 0 under setting [9].
Turning to GKWMSLLKHWLK [compound 3656], the Activity reads like this: under setting [12], 1; under setting [11], 1; under setting [9], 1.
